This note sets out measurements from US12378211B2, “Carbonic anhydrase inhibitors and antibiotics against multidrug resistant bacteria” (Purdue Research Foundation, priority 2018, dated 2025).

≈ marks a conversion by molar mass, not a printed value. Like-named read-outs stand apart in the source and are kept apart here.

Assay [1] has as its system Enterococcus faecium E417-HM-965. The assay is described as follows: MIC of CAIs in BHIB and TSB. In kind it is cell-based. The method, then:
(§1) The minimum inhibitory concentrations (MICs) of CAIs were tested against clinical isolates of vancomycin sensitive and vancomycin resistant Enterococci strains as per the guidelines provided by the Clinical and Laboratory Standards Institute (CLSI). The selected strains of Enterococci were streaked on Tryptic Soy Agar (TSA) plates and let grow for 24 hours at 37° C. Afterwards, a bacterial solution equivalent to 0.5 McFarland standard was prepared and diluted in tryptone soy broth (TSB) or brain heart infusion broth (BHIB) to achieve a bacterial concentration of about 5×10^5 CFU/mL and seeded in 96-well well plates. Compounds and control drugs were added in the first row of the 96-well plates and serially diluted along the plates. Plates were then incubated aerobically at 37° C. for 18-20 hours. MICs reported in Table 5 are the minimum concentration of the compounds/control drugs that could inhibit completely the visual growth of the bacteria.

The subject of assay [2] is Enterococcus faecium Patient #2-1-NR-31909. The experiment in a line: MIC of CAIs in BHIB and TSB. The format is cell-based. The method, then: as §1
Assay [3] concerns Enterococcus fecalis Strain SF 24397 NR31970. The experiment in a line: MIC of CAIs in BHIB and TSB. The format is cell-based. How it is done:
as §1

For assay [4], the system named is Enterococcus faecalis—S613 HM-334. The assay is described as follows: MIC of CAIs in BHIB and TSB. In kind it is cell-based. The method, then: as §1, with “bacteria. The MIC values of CAIs against the tested VRE strains were higher in BHIB than in TSB. This may be due to binding of these drugs to proteins. […] They inhibited the VRE strains at MIC values ranging from 1 to 4 μg/mL.” for “bacteria.”

The test system of assay [5] is Enterococcus faecalis-S613 HM-334. The experiment in a line: MIC in presence of 4% human serum albumin. The format is cell-based. Conditions: TSB supplemented with 4% human serum albumin. The method, then:
as §1, with “against” for “against clinical isolates of vancomycin sensitive and”, “resistant Enterococcus faecalis—S613 HM 334 strain” for “resistant Enterococci strains”, “selected strain was” for “selected strains of Enterococci were”, “(TSA) plate” for “(TSA) plates”, “(TSB) supplemented with 4% human serum albumin (HAS)” for “(TSB) or brain heart infusion broth (BHIB)”, “in table (6)” for “in Table 5”

Assay [6] deals with Mutant-5 of Enterococcus fecalis NR 31975. The experiment in a line: microbe, parasite or virus in culture. In kind it is cell-based. To be noted: Enterococcus.
Assay [7] relates to Mutant-14 of Enterococcus fecalis NR 31975. The experiment in a line: microbe, parasite or virus in culture. The format is cell-based. To be noted: Enterococcus.
Assay [8] concerns Mutant-9 of Enterococcus fecalis NR 31975. The experiment in a line: microbe, parasite or virus in culture. In kind it is cell-based. Conditions: Enterococcus.
In assay [9] the test system is Mutant-2 of Enterococcus fecalis NR 31975. The assay is described as follows: microbe, parasite or virus in culture. Conditions: Enterococcus. In kind it is cell-based.
The subject of assay [10] is Staphylococcus epidermidis NRS 101. The experiment in a line: MIC against Staphylococci, broth microdilution. The format is cell-based. To be noted: Staphylococcus epidermidis, NRS101; TSB; read-out: MIC. The method, then:
(§2) The minimum inhibitory concentrations (MICs) of the compounds and control drugs were determined using the broth microdilution method, according to guidelines outlined by the Clinical and Laboratory Standards Institute (CLSI) 1. Staphylococci strains were grown aerobically overnight on tryptone soya agar plates at 37° C., afterwards a bacterial solution equivalent to 0.5 McFarland standard was prepared and diluted in tryptone soy broth (TSB) to achieve a bacterial concentration of about 5×10^5 CFU/mL and seeded in 96-well well plates. Compounds and control drugs were added in the first row of the 96-well plates and serially diluted along the plates. Plates were then incubated aerobically at 37° C. for 18-20 hours. MICs reported in Table 2 are the minimum concentration of the compounds/control drugs that could inhibit completely the visual growth of the bacteria.

In assay [11] the test system is Enterococcus faecium E417-HM-965. The assay is described as follows: MIC, broth microdilution in TSB. The format is cell-based. To be noted: Enterococcus faecium, E417HM965, TSB. How it is done: as §2, with “Institute (CLSI). Enterococci” for “Institute (CLSI) 1. Staphylococci”, “Table 1” for “Table 2”
A general note: In broth dilution the organism is exposed to a series of concentrations in liquid medium.

In assay [12] the test system is Enterococcus faecium Patient #2-1-NR-31909. The assay is described as follows: MIC, broth microdilution in TSB. To be noted: Enterococcus faecium, TSB. The format is cell-based. The method, then: as §2, with “Institute (CLSI). Enterococci” for “Institute (CLSI) 1. Staphylococci”, “Table 1” for “Table 2”
For assay [13], the system named is Mutant-11 of Enterococcus fecalis NR 31975. The assay is described as follows: microbe, parasite or virus in culture. In kind it is cell-based. To be noted: Enterococcus.
Assay [14] has as its system Mutant-3 of Enterococcus fecalis NR 31975. The experiment in a line: microbe, parasite or virus in culture. The format is cell-based. Conditions: Enterococcus.
The test system of assay [15] is Mutant-8 of Enterococcus fecalis NR 31975. The experiment in a line: microbe, parasite or virus in culture. The format is cell-based. To be noted: Enterococcus.
For assay [16], the system named is Mutant-13 of Enterococcus fecalis NR 31975. The experiment in a line: microbe, parasite or virus in culture. In kind it is cell-based. Conditions: Enterococcus.
Assay [17] relates to Mutant-4 of Enterococcus fecalis NR 31975. The experiment in a line: microbe, parasite or virus in culture. The format is cell-based. Conditions: Enterococcus.
Assay [18] deals with Mutant-7 of Enterococcus fecalis NR 31975. The assay is described as follows: microbe, parasite or virus in culture. The format is cell-based. To be noted: Enterococcus.
Assay [19] has as its system Mutant-6 of Enterococcus fecalis NR 31975. The experiment in a line: microbe, parasite or virus in culture. In kind it is cell-based. To be noted: Enterococcus.
In assay [20] the test system is Mutant-15 of Enterococcus fecalis NR 31975. The assay is described as follows: microbe, parasite or virus in culture. The format is cell-based. Conditions: Enterococcus.
The subject of assay [21] is MRSA NRS 384 (MRSA USA300). The assay is described as follows: MIC against Staphylococci, broth microdilution. In kind it is cell-based, Staphylococcus aureus. Conditions: Staphylococcus aureus; TSB; read-out: MIC. How it is done:
as §2

Assay [22] has as its system Mutant-12 of Enterococcus fecalis NR 31975. The assay is described as follows: microbe, parasite or virus in culture. In kind it is cell-based. To be noted: Enterococcus.
Assay [23] has as its system Bacteroides fragilis—CL07T00C01 HIM-709. The assay is described as follows: MIC against human normal gut microbiota. The format is cell-based. Conditions: Bacteroides; BHIS broth, anaerobic, 48 hours; read-out: MIC. How it is done: (§3) Three different bacterial strains were used in this experiment; Bifidobacterium (anaerobic Gram positive bacteria), Bacteroides (anaerobic Gram negative bacteria) and Lactobacillus (microaerophilic Gram positive bacteria). Bifidobacterium and Bacteroides were first grown for 48 hours at 37° C., anaerobically using brain heart infusion supplemented (BHIS) agar (Brain heart infusion agar supplemented with hemin, vitamin K and L-cysteine). Lactobacillus was cultivated on MRS agar and incubated in presence of 5% CO2 for 48 hours at 37° C. Each bacterium was suspended in phosphate buffered saline (PBS) to produce a suspension with optical density that matches 0.5 McFarland standard and diluted in brain heart infusion supplemented broth (for Bifidobacterium and Bacteroides) or in MRS broth (for Lactobacillus) to achieve bacterial concentration of approximately 5×10^5 CFU/ml. Bacteria were then seeded in 96-well plates containing serial dilutions of the compounds and incubated as mentioned previously for 48 hours.

In assay [24] the test system is Bacteroides dorei—CL02T12C06 HM-719. The assay is described as follows: MIC against human normal gut microbiota. In kind it is cell-based. To be noted: Bacteroides; BHIS broth, anaerobic, 48 hours; read-out: MIC. How it is done:
as §3

In assay [25] the test system is Bifidobacterium longum subsp. Longum—44B HM 845. The assay is described as follows: MIC against human normal gut microbiota. In kind it is cell-based. Conditions: Bifidobacterium longum; BHIS broth, anaerobic, 48 hours; read-out: MIC. The method, then: as §3
Assay [26] relates to Lactobacillus casei ATCC 334. The assay is described as follows: MIC against human normal gut microbiota. In kind it is cell-based. Conditions: Lacticaseibacillus casei, ATCC334; MRS broth, 5% CO2, 48 hours; read-out: MIC. The method, then:
as §3

For assay [27], the system named is Lactobacillus gasseri EX336960VC03 HIM-400. The experiment in a line: MIC against human normal gut microbiota. In kind it is cell-based. Conditions: Lactobacillus gasseri; MRS broth, 5% CO2, 48 hours; read-out: MIC. The method, then:
as §3

For assay [28], the system named is Bifidobacterium breve—JCP7499 HIM 1120. The experiment in a line: MIC against human normal gut microbiota. The format is cell-based. Conditions: Bifidobacterium; BHIS broth, anaerobic, 48 hours; read-out: MIC. How it is done:
as §3

Where [29] appears, read: Enterococcus faecium, E417HM965, BHIB, read-out: MIC.
Where [30] appears, read: Enterococcus faecium, E417HM965, TSB, Table 5, read-out: MIC.
[31] abbreviates: Enterococcus faecium, BHIB, read-out: MIC.
[32] abbreviates: Enterococcus faecium, TSB, Table 5, read-out: MIC.
[33] abbreviates: Enterococcus, BHIB, read-out: MIC.
The mark [34] stands for this setting: Enterococcus, TSB, Table 5, read-out: MIC.
Where [35] appears, read: Enterococcus, BHIIB, read-out: MIC.

As to `CC(=O)/N=c1/sc(S(N)(=O)=O)nn1C` [Methazolamide], the MIC in assay [1] (setting [29]) is 64 µg/mL; in assay [1] (setting [30]), 4 µg/mL; in assay [2] (setting [31]), > 128 µg/mL; in [2] (setting [32]), 8 µg/mL; in assay [3] (setting [33]), > 128 µg/mL; in [3] (setting [34]), 2 µg/mL. For the same compound, the MIC is > 128 µg/mL in assay [4] (setting [35]); 1 µg/mL in assay [4] (setting [34]); > 256 µg/mL in [5] (Enterococcus, read-out: MIC).
Take `NS(=O)(=O)c1cc(Cl)c(Cl)c(S(N)(=O)=O)c1` [Dichlophenamide]: the MIC in [1] (BHIB) was 16 µg/mL; in assay [1] (TSB, Table 5), 1 µg/mL; in [2] (BHIB), >128 µg/mL; in assay [2] (TSB, Table 5) it was 2 µg/mL; in [3] (BHIB) it was >128 µg/mL; in [3] (TSB, Table 5) it was 16 µg/mL. Also, the MIC was >128 µg/mL in [4] (BHIIB); 16 µg/mL in assay [4] (TSB, Table 5); >256 µg/mL in assay [5].
For the compound `CCN[C@H]1CN(CCCOC)S(=O)(=O)c2sc(S(N)(=O)=O)cc21` [Brinzolamide], the MIC in assay [1] (setting [29]) is 16 µg/mL; in [1] (setting [30]), 2 µg/mL; in assay [2] (setting [31]) it was > 128 µg/mL; in assay [2] (setting [32]) it was 4 µg/mL; in assay [3] (setting [33]), > 128 µg/mL; in [3] (setting [34]) it was 2 µg/mL. The MIC is > 128 µg/mL in [4] (setting [35]); 2 µg/mL in [4] (setting [34]); > 256 µg/mL in [5] (Enterococcus, read-out: MIC).
Take `CCCC(=O)Nc1nnc(S(N)(=O)=O)s1` [CAI0013, N-(5-Sulfamoyl-1,3,4-thiadiazol-2-yl) butyramide]: the MIC was 16 µg/mL (≈ 63.9 µM) in assay [6]; 8 µg/mL (≈ 32 µM) in assay [7]; 8 µg/mL (≈ 32 µM) in assay [8]; 8 µg/mL (≈ 32 µM) in assay [9]; > 64 µg/mL in [10]; 0.5 µg/mL (≈ 2 µM) in assay [11] (Table 1, read-out: MIC). Also, the MIC in [11] (Table 7, read-out: MIC in TSB) amounted to 0.5 µg/mL (≈ 2 µM); in assay [12] (Table 1, read-out: MIC), 0.5 µg/mL (≈ 2 µM); in assay [12] (Table 7, read-out: MIC in TSB), 0.5 µg/mL (≈ 2 µM); in assay [13], 8 µg/mL (≈ 32 µM); in [14], 16 µg/mL (≈ 63.9 µM); in assay [15] it was 16 µg/mL (≈ 63.9 µM). In addition, the MIC in [16] was 16 µg/mL (≈ 63.9 µM); in assay [17], 16 µg/mL (≈ 63.9 µM); in [18], 8 µg/mL (≈ 32 µM); in assay [19] it was 8 µg/mL (≈ 32 µM); in assay [20], 16 µg/mL (≈ 63.9 µM); in assay [21], > 64 µg/mL. Further, the MIC in [22] was 8 µg/mL (≈ 32 µM); in assay [23], > 64 µg/mL; in assay [24], > 64 µg/mL; in assay [25], > 64 µg/mL; in assay [26], > 64 µg/mL; in [27] it was > 64 µg/mL. For the same compound, in assay [28], the MIC was > 64 µg/mL.
Turning to `CCOc1ccc2nc(S(N)(=O)=O)sc2c1` [Ethoxzolamide], the MIC was 16 µg/mL in assay [1] (setting [29]); 2 µg/mL in [1] (setting [30]); 64 µg/mL in assay [2] (setting [31]); 2 µg/mL in assay [2] (setting [32]); > 128 µg/mL in assay [3] (setting [33]); 2 µg/mL in assay [3] (setting [34]). The MIC in assay [4] (setting [35]) was > 128 µg/mL; in assay [4] (setting [34]) it was 1 µg/mL; in [5] (Enterococcus, read-out: MIC), > 256 µg/mL.
